Experimental data taken from patent US9066887B2, “Transdermal therapeutic system having urea components” (LTS LOHMANN THERAPIE-SYSTEME AG, priority 2008, dated 2015).

Test: In vitro permeation from TTS in Franz diffusion cell
Details: TTS with 10% (m/m) active ingredient and 20% (m/m) solid urea of particle size >100 μm (B) versus TTS containing no urea (A); acrylate adhesive matrix; cow udder, 32° C., 72 h
Experimental: A commercial acrylate adhesive was dissolved in a solvent. […] This acrylate adhesive composition was cast to form a reservoir layer 500 μm in thickness, and the solvent was evaporated, producing a matrix basis weight of 100 g/m^2. A number of experimental TTS were punched from this active ingredient laminate, and were then used for experiments in vitro.
The Franz diffusion cell is composed of a donor compartment and an acceptor compartment, separated by a membrane (cow udder). The donor compartment contains the TTS, while, for the acceptor compartment, a physiological buffer was used, conditioned to a temperature of 32° C. Samples were taken from the acceptor compartment over a period of 72 h, and were analyzed by HPLC for the permeated amount of active ingredient.

SMILES | increase in active ingredient permeation through the skin (cumulative permeated amount), factor
Clc1ccc2nsnc2c1NC1=NCCN1 [tizanidine] | 4
Cn1c(=O)c2c(ncn2C)n(C)c1=O [caffeine] | 8
c1ccc(Cn2c(N3CCNCC3)nc3ccccc32)cc1 [lerisetron] | 9
